Source: patent US20260242419A1, “A CYCLIC PEPTIDE FOR TRAPPING INTERLEUKIN-1 BETA” (Merck Sharp & Dohme LLC, priority 2023, published 2026)
Starred links: 1 amine or outer side, 2 acyl side, 3 side chain; linkers in the order of their positions; H or OH if unused. Non-standard residues stand in square brackets, D forms with d. Residues, ends and D or L forms follow the SMILES beside them. dPro(4R-(4-pyridylmethyl)) = O=C(O)[C@H]1C[C@@H](Cc2ccncc2)CN1; X1 = COc1ncc(-c2ccc(C[C@H]3CCN([*:1])[C@H]3C(=O)[*:2])cc2)cn1; Trp(βS-Me,4-F) = C[C@@H](c1c[nH]c2cccc(F)c12)[C@H](N)C(=O)O; 3Aminoazetidine3carboxyl = O=C(C1(N[*:1])CN([*:3])C1)[*:2]; Bip(4'-COOH) = N[C@@H](Cc1ccc(-c2ccc(C(=O)O)cc2)cc1)C(=O)O; dPro(4R-Bzl(4-F)) = O=C(O)[C@H]1C[C@@H](Cc2ccc(F)cc2)CN1; X9 = O=C([C@H]1[C@@H](Cc2cncnc2)CCN1[*:1])[*:2]; Ala(pyrimidin-5-yl) = N[C@@H](Cc1cncnc1)C(=O)O; Phe(4-CONH2) = NC(=O)c1ccc(C[C@H](N)C(=O)O)cc1; Phe(4-COOH) = N[C@@H](Cc1ccc(C(=O)O)cc1)C(=O)O; Pro(cis-4-F) = O=C(O)[C@@H]1C[C@H](F)CN1; AEF = NCCOc1ccc(C[C@H](N)C(=O)O)cc1; 4Pal = N[C@@H](Cc1ccncc1)C(=O)O; NMeDab = CN[C@@H](CCN)C(=O)O; αMeK = C[C@](N)(CCCCN)C(=O)O; Dab = NCC[C@H](N)C(=O)O; Aib = CC(C)(N)C(=O)O; Sar = CNCC(=O)O

Target: T1, IL-1β (Homo sapiens, UniProt P01584)
T1 construct: purchased BioLegend 579404
T1 sequence (P01584 117-269): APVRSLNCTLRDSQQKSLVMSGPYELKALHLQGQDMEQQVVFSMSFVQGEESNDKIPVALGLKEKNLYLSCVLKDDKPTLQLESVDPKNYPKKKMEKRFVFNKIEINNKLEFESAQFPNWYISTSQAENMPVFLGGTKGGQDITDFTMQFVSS
Test: IL-6 assay in MRC5 cells: inhibition of IL-1β induced IL-6 secretion (AlphaLISA)
Format: cell-based
Conditions: inhibition of IL-1β induced IL-6 secretion in MRC5 cells; read-out: MRC5 IC50
Experimental: Procedure for IL-6 Assay in MRC5 Cells
The inhibition of IL-1β induced IL-6 secretion was evaluated in MRC5 cells. Recombinant human IL-1β (BioLegend 579404) at 2λ EC80 concentration was prepared in seeding medium. EMEM (ATCC 30-2003) with 0.025% BSA (Sigma A9576), 1×penicillin/streptomycin (Gibco 15070-063), 1×NEAA (Gibco 11140-050), 1×GlutaMax (Gibco 35050-061), and 1×sodium pyruvate (Gibco 11360-070), 20 μL of IL-1β was added to a 384-well collagen-coated plate (Corning 354664) and pre-incubated at ambient temperature for 1 hour with 200 nL of compound dispensed using an ECHO 555 liquid handler. Human lung fibroblast MRC5 cells (ATCC CCL-171) were added at a density of 3000 cells/20 μL per well. The cells were prepared by passaging three times in growth medium, EMEM (ATCC 30-2003) with 10% fetal bovine serum (Gibco 16140-071), 1×penicillin/streptomycin (Gibco 15070-063), 1×NEAA (Gibco 11140-050), 1×GlutaMax (Gibco 35050-061), and 1×sodium pyruvate (Gibco 11360-070) in collagen-coated T175 flasks (Greiner 661950) and harvested in seeding medium after 5 minutes of 0.25% trypsin-EDTA (Gibco 25200-056) digestion. The 384-well collagen-coated plate, containing a final volume of 40 μL, was incubated at 37° C., 5% CO2 overnight. 5 μL of the conditioned medium was transferred to a 384-well AlphaLISA plate (PerkinElmer 6005350) for detection of IL-6 using the human AlphaLISA IL-6 kit (PerkinElmer AL223F) as per the manufacturer's protocol. 20 μL of the acceptor bead/biotinylated antibody mix was added to the 384-well AlphaLISA plate and incubated for 1 hour at ambient temperature. The donor bead mix was protected from light and 25 μL was added to the plate and incubated for 30 minutes at ambient temperature. The AlphaLISA plate was read on an EnVision multimode plate reader (Perkin Elmer model 2104) using the AlphaScreen setting (laser exc at 680 nm and emis at […]). Dose response curves and IC50 values were analyzed using a 4-parameter logistic equation in Spotfire software (Tibco, Palo Alto, CA).

SMILES	IC50 [pM]
C[C@@H](c1c[nH]c2cccc(F)c12)[C@@H]1NC(=O)[C@@H]2C[C@H](F)CN2C(=O)CNC(=O)[C@H](Cc2ccc(C(=O)O)cc2)NC(=O)[C@H](Cc2ccncc2)NC(=O)[C@H](Cc2ccc(-c3ccc(C(=O)O)cc3)cc2)NC(=O)[C@H]2C[C@@H](Cc3ccc(F)cc3)CN2C(=O)CN(C)C(=O)[C@H](CCN)NC(=O)[C@H](CCC(N)=O)NC(=O)[C@H](Cc2cncnc2)NC(=O)[C@](C)(CCCCN)NC(=O)[C@H](Cc2c[nH]c3ccccc23)NC(=O)[C@H](CCC(=O)O)NC(=O)C(C)(C)NC1=O [Example 132] (cyclo([Bip(4'-COOH)][4Pal][Phe(4-COOH)]G[Pro(cis-4-F)][Trp(βS-Me,4-F)][Aib]EW[αMeK][Ala(pyrimidin-5-yl)]Q[Dab][Sar][dPro(4R-Bzl(4-F))]))	15
COc1ncc(-c2ccc(C[C@H]3CCN4C(=O)CNC(=O)[C@H](CCN)NC(=O)[C@H](CCC(N)=O)NC(=O)[C@H](Cc5cncnc5)NC(=O)C(C)(C)NC(=O)[C@H](Cc5c[nH]c6ccccc56)NC(=O)[C@H](CCC(=O)O)NC(=O)C(C)(C)NC(=O)[C@H]([C@@H](C)c5c[nH]c6cccc(F)c56)NC(=O)[C@@H]5C[C@H](F)CN5C(=O)CNC(=O)[C@H](Cc5ccc(C(=O)O)cc5)NC(=O)[C@H](Cc5ccncc5)NC(=O)[C@H](Cc5ccc(-c6ccc(C(=O)O)cc6)cc5)NC(=O)[C@@H]34)cc2)cn1 [Example 60] (cyclo([Bip(4'-COOH)][4Pal][Phe(4-COOH)]G[Pro(cis-4-F)][Trp(βS-Me,4-F)][Aib]EW[Aib][Ala(pyrimidin-5-yl)]Q[Dab]G[X1]))	18
C[C@@H](c1c[nH]c2cccc(F)c12)[C@@H]1NC(=O)[C@@H]2C[C@H](F)CN2C(=O)CNC(=O)[C@H](Cc2ccc(C(=O)O)cc2)NC(=O)[C@H](Cc2ccncc2)NC(=O)[C@H](Cc2ccc(-c3ccc(C(=O)O)cc3)cc2)NC(=O)[C@H]2[C@@H](Cc3cncnc3)CCN2C(=O)CNC(=O)[C@H](CCN)NC(=O)[C@H](CCC(N)=O)NC(=O)[C@H](Cc2cncnc2)NC(=O)C(C)(C)NC(=O)[C@H](Cc2c[nH]c3ccccc23)NC(=O)[C@H](CCC(=O)O)NC(=O)C(C)(C)NC1=O [Example 71] (cyclo([Bip(4'-COOH)][4Pal][Phe(4-COOH)]G[Pro(cis-4-F)][Trp(βS-Me,4-F)][Aib]EW[Aib][Ala(pyrimidin-5-yl)]Q[Dab]G[X9]))	58
CC(=O)NCCOc1ccc(C[C@@H]2NC(=O)[C@H]3C[C@@H](Cc4ccncc4)CN3C(=O)CNC(=O)[C@H](CCN)N(C)C(=O)[C@H](CCC(N)=O)NC(=O)[C@H](Cc3cncnc3)NC(=O)C(C)(C)NC(=O)[C@H](Cc3c[nH]c4ccccc34)NC(=O)[C@H](CO)NC(=O)C(C)(C)NC(=O)[C@H]([C@@H](C)c3c[nH]c4cccc(F)c34)NC(=O)[C@@H]3C[C@H](F)CN3C(=O)CNC(=O)[C@H](Cc3ccc(C(N)=O)cc3)NC(=O)[C@H](Cc3ccncc3)NC2=O)cc1 [Example 218] (cyclo([4Pal][Phe(4-CONH2)]G[Pro(cis-4-F)][Trp(βS-Me,4-F)][Aib]SW[Aib][Ala(pyrimidin-5-yl)]Q[NMeDab]G[dPro(4R-(4-pyridylmethyl))][AEF](Ac)))	36
C[C@@H](c1c[nH]c2cccc(F)c12)[C@@H]1NC(=O)[C@@H]2C[C@H](F)CN2C(=O)CNC(=O)[C@H](Cc2ccc(C(=O)O)cc2)NC(=O)[C@H](Cc2ccncc2)NC(=O)[C@H](Cc2ccc(-c3ccc(C(=O)O)cc3)cc2)NC(=O)[C@H]2C[C@@H](Cc3ccc(F)cc3)CN2C(=O)CNC(=O)[C@H](CCN)NC(=O)[C@H](CCC(N)=O)NC(=O)[C@H](Cc2cncnc2)NC(=O)C2(CNC2)NC(=O)[C@H](Cc2c[nH]c3ccccc23)NC(=O)[C@H](CCC(=O)O)NC(=O)C(C)(C)NC1=O [Example 21] (cyclo([Bip(4'-COOH)][4Pal][Phe(4-COOH)]G[Pro(cis-4-F)][Trp(βS-Me,4-F)][Aib]EW[3Aminoazetidine3carboxyl][Ala(pyrimidin-5-yl)]Q[Dab]G[dPro(4R-Bzl(4-F))]))	40
